The values below come from publication PMC6930675, “Discovery and Characterisation of Dual Inhibitors of Tryptophan 2,3-Dioxygenase (TDO2) and Indoleamine 2,3-Dioxygenase 1 (IDO1) Using Virtual Screening” (Molecules, 2019).

In data set [1] the test system is TDO2. Details: method as in PMID 27096472, PMID 28105265, PMID 26348881, PMID 22616902. The following applies: cited from earlier work; for IC50: test library, read-out: IC50 (TDO2 active compounds of the test library).
For data set [2], the target named is T1, IDO1 (SKOV3 cells) (Homo sapiens, UniProt P14902).
T1 construct: identify cell lines endogenously expressing only IDO1, only TDO2, and both enzymes simultaneously; endogenous in cells; host or cells: SKOV3 ovarian cancer cell line
Put plainly: Cell based kynurenine assay in SKOV3 ovarian line (IDO1 expressor). The following applies: for IC50: SKOV3 (IDO1), 18 h, read-out: IC50, inhibition of kynurenine secretion. As for the experimental part: (§1) Breast cancer cell lines MCF7, MDA-MB-231, BT549, Hs578T; ovarian cell line SKOV3; glioblastoma cell line A172 and lung cancer cell line H460 were grown in α-MEMGibco, Grand Island, NY, USA; ThermoFisher catalogue number 12000022) containing 5% foetal calf serum (Moregate Biotech, Hamilton, New Zealand), insulin/transferrin/selenium supplement (Roche, Ref-11074547001), added according to the manufacturer’s instructions, as well as penicillin/streptomycin (100 U/mL and 100 μg/mL, respectively). The amount of kynurenine produced by the cells was measured as described previously. Briefly, a well of a 96-well plate received 3.7 × 10^4 cells which were subsequently cultured with the addition of 50 μM ([…] and SKOV3 cells) or 100 μM (A172 cells) of L-tryptophan (Sigma-Aldrich, St Louis, MO, USA) with or without test compounds at 37 °C, 5% CO2 for 18 h. The cell number seeded was optimised to produce levels of kynurenine <40% of initial tryptophan to avoid tryptophan starvation and to ensure steady-state IDO1/TDO2 kinetics. Next, the culture supernatants were transferred into a fresh 96-well plate, incubated with trichloroacetic acid (10% final concentration) for 20 min at 60 °C to release kynurenine from the cells and precipitate proteins. After spinning the plates for 20 min at 2500 g, the supernatants were mixed at a 1:1 ratio with 4-(dimethylamino)benzaldehyde (20 mg/mL in acetic acid; Sigma) and the absorbance was read at 480 nm on an EnSpire 2300 Multimode Plate Reader (Perkin-Elmer, Singapore, Singapore). The remaining cells in the 96-well plate received a well-established indicator of cellular metabolic activity WST-1 (Roche Diagnostics Cat No 05015944, Basel, Switzerland; 10% diluted in culture media). After 1 h of incubation at 37 °C, the absorbance was measured at 440 nm. WST-1 is reduced on the outer membrane of viable cells to a soluble formazan by reducing equivalents such as NAD(P)H. The absorbance measured at 440 nm indicates the number of metabolically active cells in the culture and represents a surrogate marker of cell viability.
All experiments were repeated independently at least twice in technical quadruplicates. Calculations and graph plotting were performed in Prism (v8, 2018; GraphPad software, San Diego, CA, USA) and R computing environment (v3.5.3, 2019, 64-bit, Vienna, Austria). IC50 of the compounds in cellular enzymatic activity compared to untreated control cells was determined by fitting data to an equation f(x) = A + B/(1 + (IC50/X)^HILL) in Prism; where A is the minimum and B is the maximum of the curve, HILL is the slope of the curve and X is the compound concentration.

Data set [3] concerns IDO1/TDO2 (SKOV3 and BT549 cell lines). Put plainly: Single-concentration test of virtual hits for inhibition of kynurenine secretion in SKOV3 and BT549. Type of data set: cell-based, human. The settings on record: 20 µM. As for the experimental part:
as §1, with “Next, the culture supernatants were transferred into a fresh 96-well plate, incubated with trichloroacetic acid (10% final concentration) for 20 min at 60 °C to release kynurenine from the cells and precipitate proteins.” left out, “The remaining cells in the 96-well plate received a well-established indicator of cellular metabolic activity WST-1 (Roche Diagnostics Cat No 05015944, Basel, Switzerland; 10% diluted in culture media).” left out
All experiments were repeated independently at least twice in technical quadruplicates. […] IC50 of the compounds in cellular enzymatic activity compared to untreated control cells was determined by fitting data to an equation f(x) = A + B/(1 + (IC50/X)^HILL) in Prism; where A is the minimum and B is the maximum of the curve, HILL is the slope of the curve and X is the compound concentration.

Data set [4] concerns IDO1/TDO2 (BT549 cells). Put plainly: Cell based kynurenine assay in BT549 breast line (dual IDO1/TDO2 expressor). Set-up: species or system human. As for the experimental part: (§2) Breast cancer cell lines MCF7, MDA-MB-231, BT549, Hs578T; ovarian cell line SKOV3; glioblastoma cell line A172 and lung cancer cell line H460 were grown in α-MEMGibco, Grand Island, NY, USA; ThermoFisher catalogue number 12000022) containing 5% foetal calf serum (Moregate Biotech, Hamilton, New Zealand), insulin/transferrin/selenium supplement (Roche, Ref-11074547001), added according to the manufacturer’s instructions, as well as penicillin/streptomycin (100 U/mL and 100 μg/mL, respectively). The amount of kynurenine produced by the cells was measured as described previously. […] After spinning the plates for 20 min at 2500 g, the supernatants were mixed at a 1:1 ratio with 4-(dimethylamino)benzaldehyde (20 mg/mL in acetic acid; Sigma) and the absorbance was read at 480 nm on an EnSpire 2300 Multimode Plate Reader (Perkin-Elmer, Singapore, Singapore). […] After 1 h of incubation at 37 °C, the absorbance was measured at 440 nm. WST-1 is reduced on the outer membrane of viable cells to a soluble formazan by reducing equivalents such as NAD(P)H. The absorbance measured at 440 nm indicates the number of metabolically active cells in the culture and represents a surrogate marker of cell viability. […]

For data set [5], the system named is BT549 and SKOV3 cell lines. Nature of the data set: WST-1 assay of cellular metabolic activity / cell viability. The class given is cell-based, human. The settings on record: 20 µM; asterisks in Figure 6A. As for the experimental part: Breast cancer cell lines MCF7, MDA-MB-231, BT549, Hs578T; ovarian cell line SKOV3; glioblastoma cell line A172 and lung cancer cell line H460 were grown in α-MEMGibco, Grand Island, NY, USA; ThermoFisher catalogue number 12000022) containing 5% foetal calf serum (Moregate Biotech, Hamilton, New Zealand), insulin/transferrin/selenium supplement (Roche, Ref-11074547001), added according to the manufacturer’s instructions, as well as penicillin/streptomycin (100 U/mL and 100 μg/mL, respectively). The amount of kynurenine produced by the cells was measured as described previously. […] After spinning the plates for 20 min at 2500 g, the supernatants were mixed at a 1:1 ratio with 4-(dimethylamino)benzaldehyde (20 mg/mL in acetic acid; Sigma) and the absorbance was read at 480 nm on an EnSpire 2300 Multimode Plate Reader (Perkin-Elmer, Singapore, Singapore). […] After 1 h of incubation at 37 °C, the absorbance was measured at 440 nm. WST-1 is reduced on the outer membrane of viable cells to a soluble formazan by reducing equivalents such as NAD(P)H. The absorbance measured at 440 nm indicates the number of metabolically active cells in the culture and represents a surrogate marker of cell viability.

In data set [6] the target is T2, TDO2 (A172 cells) (Homo sapiens, UniProt P48775).
T2 construct: identify cell lines endogenously expressing only IDO1, only TDO2, and both enzymes simultaneously; endogenous in cells; host or cells: A172 glioblastoma cell line
Nature of the data set: Cell based kynurenine assay in A172 glioblastoma line (TDO2 expressor). The settings on record: 18 h, read-out: IC50, inhibition of kynurenine secretion. As for the experimental part: as §2

Several values for one entry are separate records, joined by “and”; a condition that tells them apart may be missing. Equal entries are not always repeated.

T1 sequence (P14902 whole entry): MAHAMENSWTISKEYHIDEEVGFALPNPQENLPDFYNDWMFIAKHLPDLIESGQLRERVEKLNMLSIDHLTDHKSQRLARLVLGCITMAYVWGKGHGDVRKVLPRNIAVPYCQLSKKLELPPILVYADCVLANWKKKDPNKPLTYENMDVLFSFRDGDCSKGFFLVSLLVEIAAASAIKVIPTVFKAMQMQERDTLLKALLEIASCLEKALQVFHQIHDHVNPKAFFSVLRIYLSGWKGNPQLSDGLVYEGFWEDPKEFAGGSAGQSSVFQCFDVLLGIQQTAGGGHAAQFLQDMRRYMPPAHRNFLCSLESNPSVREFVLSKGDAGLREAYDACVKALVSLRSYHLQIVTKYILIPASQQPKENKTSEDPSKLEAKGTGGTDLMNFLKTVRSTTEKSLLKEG
T2 sequence (P48775 whole entry): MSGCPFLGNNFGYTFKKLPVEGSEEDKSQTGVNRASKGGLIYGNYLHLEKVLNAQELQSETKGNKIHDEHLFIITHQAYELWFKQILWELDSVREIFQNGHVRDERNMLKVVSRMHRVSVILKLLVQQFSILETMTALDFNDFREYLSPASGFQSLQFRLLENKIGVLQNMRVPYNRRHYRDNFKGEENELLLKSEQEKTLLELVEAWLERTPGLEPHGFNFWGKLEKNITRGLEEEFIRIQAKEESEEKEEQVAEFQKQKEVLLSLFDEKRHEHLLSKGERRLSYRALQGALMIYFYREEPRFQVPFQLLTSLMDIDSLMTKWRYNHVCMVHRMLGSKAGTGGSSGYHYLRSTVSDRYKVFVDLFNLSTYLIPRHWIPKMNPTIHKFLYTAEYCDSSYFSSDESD

Consider `FC(F)(F)c1cc(-c2c[nH]nn2)ccn1` [2c], for which the “Activity class in the TDO2 test library” value in data set [1] is “inactive”. For the compound `O=C1Nc2ccccc2/C1=N\Nc1nc2ccccc2s1` [2d], the “Activity class in the TDO2 test library” value in data set [1] is “inactive”. Regarding `Nc1cccc(-c2c[nH]nn2)c1` [2a], the “Activity class in the TDO2 test library” value in data set [1] is “inactive”.

With `O=S1(=O)NC(CO)c2cc(-c3c[nH]c4cc(F)ccc34)ccc21` (centres unmarked) [1d], in data set [1], the IC50 was 0.043 µM. `Cc1ccc(C(=O)CC(=O)c2ccccc2OC(C)C)c(O)c1` [TD18]: the IC50 in data set [2] was determined as 28.9 µM. In addition, the “Inhibition of kynurenine secretion” value in data set [3] is recorded as 50% ± 20. Regarding `Nc1nonc1/C(=N/O)Nc1ccc(F)c(Cl)c1` [5L], the “Inhibition of kynurenine production, in words” value in data set [2] (SKOV3, at 1 µM) was “completely inhibited”. For the compound `C[C@H]1NS(=O)(=O)c2ccc(-c3c[nH]c4cc(F)ccc34)cc21` [1b], in data set [1], the concentration for half-maximal inhibition (IC50) was 0.027 µM. As for `O=C1c2ccccc2C(=O)c2c1nnn2Cc1cccc(C(=O)N2CCOCC2)c1` [1e], the IC50 in data set [1] is 0.048 µM. Consider `O=C(CC1(O)C(=O)Nc2c(Cl)cc(Cl)cc21)c1ccc(Cl)cc1` (centres unmarked) [2e], for which the “Activity class in the TDO2 test library” value in data set [1] is “inactive”. `CC1=C(CC(=O)c2sccc2Br)C(=O)c2ccccc2C1=O` [TD34]: the IC50 in data set [4] (BT549 (IDO1/TDO2), 18 h, read-out: IC50, inhibition of kynurenine secretion) is 3.42 µM; in data set [2], 47.3 µM and ~40 µM; in data set [6] it was 37.7 µM and ~40 µM. In addition, in data set [4] (BT549 versus A172 / SKOV3), the “Fold higher potency in BT549 than in A172 and SKOV3” value is “more than 10 fold”. In addition, the “Toxicity to the BT549 and SKOV3 cell lines” value in data set [5] is listed as “absence of cell toxicity”. Further, in data set [3], the “Inhibition of kynurenine production, in words” value was “inhibited kynurenine production”. In the case of `Fc1ccc2c(/C=C\c3cccnc3)c[nH]c2c1` [680C91], the “Effect on kynurenine production, in words” value in data set [2] (SKOV3) was “barely affected”. `COc1ccccc1C(=O)CC(=O)c1ccc(C)cc1O` [TD12]: the “Inhibition of kynurenine secretion” value in data set [3] is given as 50% ± 20. With `CC1c2cc(-c3c[nH]c4cc(F)ccc34)ccc2S(=O)(=O)N1CC(N)=O` (centres unmarked) [1a], the IC50 in data set [1] was 0.026 µM. Take `Brc1cccc(-c2c[nH]nn2)c1` [2b]: in data set [1], the “Activity class in the TDO2 test library” value was “inactive”.
